Values quoted from earlier work, collected in patent US11377636B2, “Endogenous retrovirus transcription as a marker for primate naive pluripotent stem cells” (Max-Delbrück-Centrum für Molekulare Medizin in der …, priority 2014, dated 2022).

Legend:
Src kinase = Src kinase (Homo sapiens, UniProt P12931)
KDR = KDR (Homo sapiens, UniProt P35968)
GSK3β = GSK3β (Homo sapiens, UniProt P49841)
PKCα = PKCα (Homo sapiens, UniProt P17252)
PKCβ = PKCβ (Homo sapiens, UniProt P05771)
PKCγ = PKCγ (Homo sapiens, UniProt P05129)
PKCδ = PKCδ (Homo sapiens, UniProt Q05655)
Sequence of PKCδ (Q05655 whole entry): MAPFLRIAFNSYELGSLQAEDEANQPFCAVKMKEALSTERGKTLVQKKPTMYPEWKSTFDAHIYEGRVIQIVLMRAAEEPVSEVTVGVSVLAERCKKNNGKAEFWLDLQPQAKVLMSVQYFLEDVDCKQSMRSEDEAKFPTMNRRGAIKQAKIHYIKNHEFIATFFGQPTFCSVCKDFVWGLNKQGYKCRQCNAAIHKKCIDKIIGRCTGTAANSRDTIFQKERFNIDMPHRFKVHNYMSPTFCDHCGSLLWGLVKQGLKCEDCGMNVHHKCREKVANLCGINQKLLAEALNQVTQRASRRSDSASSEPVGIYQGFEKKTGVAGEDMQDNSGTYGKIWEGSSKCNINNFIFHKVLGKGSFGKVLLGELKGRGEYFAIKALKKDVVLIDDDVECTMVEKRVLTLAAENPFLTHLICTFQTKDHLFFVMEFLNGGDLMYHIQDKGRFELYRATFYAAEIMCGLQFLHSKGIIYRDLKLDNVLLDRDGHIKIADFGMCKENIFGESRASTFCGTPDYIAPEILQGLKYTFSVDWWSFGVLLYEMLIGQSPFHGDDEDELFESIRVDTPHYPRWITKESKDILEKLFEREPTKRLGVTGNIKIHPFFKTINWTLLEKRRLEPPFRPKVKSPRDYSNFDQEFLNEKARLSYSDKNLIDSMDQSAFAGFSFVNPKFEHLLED

PKCζ = target: T1, PKCζ (Homo sapiens, UniProt Q05513)
T1 sequence (Q05513 1-592): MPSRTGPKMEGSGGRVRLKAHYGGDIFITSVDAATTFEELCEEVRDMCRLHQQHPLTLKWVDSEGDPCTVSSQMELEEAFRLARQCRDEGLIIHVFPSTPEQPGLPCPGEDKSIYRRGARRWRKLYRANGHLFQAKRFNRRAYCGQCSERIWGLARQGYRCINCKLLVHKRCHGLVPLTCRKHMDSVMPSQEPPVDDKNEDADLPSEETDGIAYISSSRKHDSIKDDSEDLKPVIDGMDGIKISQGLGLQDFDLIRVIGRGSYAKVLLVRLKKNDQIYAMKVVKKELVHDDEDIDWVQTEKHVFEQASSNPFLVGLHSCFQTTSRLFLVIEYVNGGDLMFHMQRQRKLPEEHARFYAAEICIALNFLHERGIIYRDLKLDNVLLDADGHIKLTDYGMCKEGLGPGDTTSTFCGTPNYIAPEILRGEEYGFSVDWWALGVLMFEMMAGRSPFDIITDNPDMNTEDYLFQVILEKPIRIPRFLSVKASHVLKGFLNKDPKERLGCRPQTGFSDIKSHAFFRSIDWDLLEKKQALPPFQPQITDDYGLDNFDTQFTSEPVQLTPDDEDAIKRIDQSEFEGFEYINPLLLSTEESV

PKCμ = target: T2, PKCμ (Homo sapiens, UniProt Q15139); details: does not effectively inhibit PKCμ
T2 sequence (Q15139 1-912): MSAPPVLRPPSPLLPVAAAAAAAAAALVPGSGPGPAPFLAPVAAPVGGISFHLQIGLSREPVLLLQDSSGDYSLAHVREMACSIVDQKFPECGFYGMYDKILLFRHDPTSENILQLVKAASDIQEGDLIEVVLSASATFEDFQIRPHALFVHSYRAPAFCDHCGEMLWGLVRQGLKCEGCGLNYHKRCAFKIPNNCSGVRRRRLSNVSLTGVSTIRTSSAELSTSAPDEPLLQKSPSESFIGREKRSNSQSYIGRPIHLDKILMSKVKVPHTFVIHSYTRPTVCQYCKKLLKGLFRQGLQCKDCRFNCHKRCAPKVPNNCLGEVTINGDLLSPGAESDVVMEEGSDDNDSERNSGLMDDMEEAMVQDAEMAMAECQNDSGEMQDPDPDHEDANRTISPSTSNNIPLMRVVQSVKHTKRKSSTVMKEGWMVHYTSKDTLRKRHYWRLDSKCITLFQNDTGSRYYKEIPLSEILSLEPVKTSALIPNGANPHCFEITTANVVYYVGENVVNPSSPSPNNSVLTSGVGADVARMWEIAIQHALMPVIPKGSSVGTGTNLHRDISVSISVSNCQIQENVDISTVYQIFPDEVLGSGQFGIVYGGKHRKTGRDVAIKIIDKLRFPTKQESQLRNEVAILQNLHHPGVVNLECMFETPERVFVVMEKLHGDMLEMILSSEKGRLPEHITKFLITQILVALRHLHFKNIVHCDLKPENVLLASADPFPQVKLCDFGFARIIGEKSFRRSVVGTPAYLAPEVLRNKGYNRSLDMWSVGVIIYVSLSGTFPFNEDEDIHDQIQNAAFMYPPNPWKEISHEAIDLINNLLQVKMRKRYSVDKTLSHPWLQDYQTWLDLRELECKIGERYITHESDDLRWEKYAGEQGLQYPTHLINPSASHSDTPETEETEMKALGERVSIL

Sequence of GSK3β (P49841 whole entry, species assumed): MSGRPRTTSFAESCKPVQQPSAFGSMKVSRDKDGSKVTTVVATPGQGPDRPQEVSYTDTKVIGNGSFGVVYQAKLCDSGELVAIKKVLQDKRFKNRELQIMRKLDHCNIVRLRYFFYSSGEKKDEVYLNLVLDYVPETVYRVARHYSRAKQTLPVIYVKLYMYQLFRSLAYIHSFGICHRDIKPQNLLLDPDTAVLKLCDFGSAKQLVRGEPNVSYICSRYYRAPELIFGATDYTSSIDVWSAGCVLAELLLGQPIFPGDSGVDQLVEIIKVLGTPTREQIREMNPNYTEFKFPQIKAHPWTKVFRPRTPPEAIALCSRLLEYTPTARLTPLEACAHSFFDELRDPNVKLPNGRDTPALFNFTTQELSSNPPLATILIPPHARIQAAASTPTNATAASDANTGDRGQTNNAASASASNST
Sequence of KDR (P35968 20-1356, species assumed): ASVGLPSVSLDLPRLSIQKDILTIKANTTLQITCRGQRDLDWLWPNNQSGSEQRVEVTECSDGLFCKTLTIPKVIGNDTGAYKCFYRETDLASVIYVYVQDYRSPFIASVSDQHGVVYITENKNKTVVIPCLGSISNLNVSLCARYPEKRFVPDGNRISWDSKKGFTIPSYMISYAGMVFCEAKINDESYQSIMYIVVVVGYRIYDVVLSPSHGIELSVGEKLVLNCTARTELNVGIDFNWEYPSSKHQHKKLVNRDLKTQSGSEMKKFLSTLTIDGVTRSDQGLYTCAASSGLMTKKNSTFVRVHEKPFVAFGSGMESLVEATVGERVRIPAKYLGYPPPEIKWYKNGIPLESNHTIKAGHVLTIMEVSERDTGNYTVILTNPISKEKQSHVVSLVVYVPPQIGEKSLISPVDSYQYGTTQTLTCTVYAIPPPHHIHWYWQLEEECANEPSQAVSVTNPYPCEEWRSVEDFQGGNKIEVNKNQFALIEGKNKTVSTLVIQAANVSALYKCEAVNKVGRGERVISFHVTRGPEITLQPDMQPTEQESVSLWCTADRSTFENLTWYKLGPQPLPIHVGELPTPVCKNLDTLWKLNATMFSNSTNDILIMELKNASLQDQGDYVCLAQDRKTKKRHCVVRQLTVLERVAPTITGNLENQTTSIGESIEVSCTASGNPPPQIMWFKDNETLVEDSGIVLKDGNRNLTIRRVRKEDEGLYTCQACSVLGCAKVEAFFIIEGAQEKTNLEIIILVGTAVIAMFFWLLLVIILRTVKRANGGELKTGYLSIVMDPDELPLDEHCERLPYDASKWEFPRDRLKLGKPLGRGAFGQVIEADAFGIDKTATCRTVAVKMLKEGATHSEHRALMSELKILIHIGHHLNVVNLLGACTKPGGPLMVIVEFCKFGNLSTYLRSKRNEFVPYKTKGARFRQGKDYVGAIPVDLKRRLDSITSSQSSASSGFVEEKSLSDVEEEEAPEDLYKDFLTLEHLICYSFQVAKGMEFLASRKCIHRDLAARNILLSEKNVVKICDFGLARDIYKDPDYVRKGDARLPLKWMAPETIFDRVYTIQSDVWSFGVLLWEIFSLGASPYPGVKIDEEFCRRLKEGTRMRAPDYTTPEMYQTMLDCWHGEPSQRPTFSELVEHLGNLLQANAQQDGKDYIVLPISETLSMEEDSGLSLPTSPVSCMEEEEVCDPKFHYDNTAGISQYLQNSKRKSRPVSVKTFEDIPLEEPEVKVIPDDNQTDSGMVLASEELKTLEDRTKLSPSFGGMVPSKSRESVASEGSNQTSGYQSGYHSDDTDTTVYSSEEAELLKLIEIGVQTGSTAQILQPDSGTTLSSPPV
Sequence of PKCβ (P05771 whole entry, species assumed): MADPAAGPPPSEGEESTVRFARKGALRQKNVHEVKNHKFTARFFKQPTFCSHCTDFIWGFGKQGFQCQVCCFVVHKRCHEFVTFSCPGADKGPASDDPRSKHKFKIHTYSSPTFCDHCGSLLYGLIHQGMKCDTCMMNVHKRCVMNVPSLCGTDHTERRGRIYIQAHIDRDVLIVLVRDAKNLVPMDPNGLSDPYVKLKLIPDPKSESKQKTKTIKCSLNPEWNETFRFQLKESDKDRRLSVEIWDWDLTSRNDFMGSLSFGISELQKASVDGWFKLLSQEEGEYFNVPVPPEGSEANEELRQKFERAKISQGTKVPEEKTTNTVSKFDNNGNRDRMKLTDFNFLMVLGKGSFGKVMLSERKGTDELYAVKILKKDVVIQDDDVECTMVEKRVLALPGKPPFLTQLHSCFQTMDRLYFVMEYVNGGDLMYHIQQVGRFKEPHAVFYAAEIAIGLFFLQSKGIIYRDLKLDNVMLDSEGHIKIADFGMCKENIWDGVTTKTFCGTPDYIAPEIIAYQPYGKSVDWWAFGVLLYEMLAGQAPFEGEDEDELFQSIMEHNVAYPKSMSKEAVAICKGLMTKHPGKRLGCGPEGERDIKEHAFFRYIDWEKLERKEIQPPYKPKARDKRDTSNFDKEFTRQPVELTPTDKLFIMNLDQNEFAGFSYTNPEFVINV

For CN1C(=O)[C@@]23C[C@]4([C@]56C[C@@]78SS[C@@](CO)(C(=O)N7[C@H]5Nc5ccccc56)N(C)C8=O)c5ccccc5N[C@@H]4N2C(=O)[C@]1(CO)SS3 [Chaetocin], the “cytotoxicity against HeLa cells IC50” value (HeLa cells) is given as 0.05 µg/mL.

For WH-4-023, the IC50 (Src kinase) is listed as 6 nM and the “inhibition on KDR” value (KDR) is listed as “little inhibition”.

In the case of Cc1[nH]c2ccccc2c1C1=C(NCCc2ccc(F)cc2)C(=O)N(C)C1=O [IM-12], the IC50 (GSK3β) is listed as 53 nM.

For COc1ccc2c(c1)c(C1=C(c3c[nH]c4ccccc34)C(=O)NC1=O)cn2CCCN(C)C [Go6983], the IC50 (PKCα) is listed as 7 nM, the IC50 (PKCβ) is listed as 7 nM and the IC50 (PKCγ) is listed as 6 nM. The IC50 (PKCδ) was 10 nM, the IC50 (PKCζ) was 60 nM and the IC50 (PKCμ) was 20000 nM.
